The results in this text go back to patent US6528510B1, “HIV protease inhibitors” (Warner-Lambert Company, priority 1998, dated 2003).

Like-named read-outs stand apart in the source and are kept apart here. Some results are limits rather than exact numbers.

For data set [1], the target named is T1, Recombinant HIV-1 protease (Human immunodeficiency virus type 1 group M subtype B, UniProt P04585).
T1 construct: Recombinant HIV-1 protease (>96% purity); purchased Bachem Bioscience, Inc. (King of Prussia, Pa.)
Briefly: HIV protease assay (Ki determination, HPLC readout of substrate III cleavage). The class given is biochemical. The protocol: Recombinant HIV-1 protease (>96% purity) and HIV protease substrate III (the undecapeptide H-His-Lys-Ala-Arg-Val-Leu-Nph-Glu-Ala-Nle-Ser-NH2, 97% purity) were purchased from Bachem Bioscience, Inc. (King of Prussia, Pa.).
The methods employed follow the procedures of Tummino, et al., Archives of Biochemistry and Biophysics, 1995;316:523). […] (total volume, […]). […] The final inhibitor concentrations used were 0 (0.1, 0.2, in some experiments), 0.5, 1, 2, 5, 10, 20, 50, and 100 μM. The solution was mixed, incubated for 5 minutes and the reaction quenched by addition of trifluoracetic acid, 2% final. The (leu-p-nitro-phe) bond of the substrate is cleaved by the enzyme and substrate arid products separated by reverse-phase HPLC. Absorbance was measured at 220 nm, peak areas determined, and percentage conversion to product used to calculate percentage control (=[% conversion (+inhibitor)/% conversion (−inhibitor)]×100).

The subject of data set [2] is HIV infected lymphocyte derived CEM cells. Briefly: Cellular infection assay in CEM cells, XTT cytopathic procedure (EC50). Conditions: for TI (therapeutic index, TC50/EC50): CEM cells; for EC50: Human immunodeficiency virus 1, CCRF-CEM, read-out: Antiviral Efficacy EC50. As for the experimental part: (§1) Compound concentrations were 0.32, 1, 3.2, 10, 32, and 100 uM.
Background: Tetrazolium assays rely on reduction of a dye to a coloured formazan, in cell work by metabolically active cells.

Data set [3] in a line: Cellular toxicity in uninfected CEM cells, XTT (TC50). Conditions: human, uninfected CEM cells (lymphocyte derived). The protocol: as §1
Setting [4] is: recombinant HIV-1 protease, read-out: Inhib of HIV Protease KI.

`Cc1cc(SC2=C(O)CC(CCc3ccc4[nH]ccc4c3)(C(C)C)OC2=O)c(C(C)(C)C)cc1CO` (racemic) [Example 61, 3-(2-tert-Butyl-4-hydroxymethyl-5-methyl-phenylsulfanyl)-4-hydroxy-6-[2-(1H-indol-5-yl)-ethyl]-6-isopropyl-5,6-dihydro-pyran-2-one]: in data set [1], the Ki is 0.98 nM. Moreover, in data set [2], the “TI (therapeutic index, TC50/EC50)” value was determined as 68 and the EC50 amounted to 680 nM. The CC50 in data set [3] stood at 46000 nM.
As to `Cc1cc(SC2=C(O)CC(CCc3sccc3C)(C(C)C)OC2=O)c(C(C)(C)C)cc1N` (racemic) [Example 65, 3-(4-Amino-2-tert-butyl-5-methyl-phenylsulfanyl)-4-hydroxy-6-isopropyl-6-[2-(3-methyl-thiophen-2-yl)-ethyl]-5,6-dihydro-pyran-2-one], the inhibition constant Ki in data set [1] was 1.2 nM. Also, in data set [2], the “TI (therapeutic index, TC50/EC50)” value is listed as 54 and the EC50 was 1100 nM. For the same compound, the CC50 in data set [3] turned out to be 60000 nM.
Take `CC(C)C1(CCc2ccsc2)CC(O)=C(Sc2cc3sc(N)nc3cc2C(C)(C)C)C(=O)O1` (racemic) [Example 82]: the Ki in data set [1] came to 1.1 nM. In addition, in data set [2], the “TI (therapeutic index, TC50/EC50)” value was 109 and the EC50 came to 700 nM. The same compound showed a CC50 in data set [3] of 76000 nM.
Turning to `Cc1c(F)cccc1CCC1(C(C)C)CC(O)=C(Sc2cc3sc(N)nc3cc2C(C)(C)C)C(=O)O1` (racemic) [Example 84, 3-(2-Amino-5-tert-butyl-benzothiazol-6-ylsulfanyl)-6-[2-(3-fluoro-2-methyl-phenyl)-ethyl]-4-hydroxy-6-isopropyl-5,6-dihydro-pyran-2-one], the Ki in data set [1] worked out at 0.8 nM. In data set [2], the “TI (therapeutic index, TC50/EC50)” value was 198 and the EC50 was determined as 470 nM. Further, in data set [3], the CC50 was 93000 nM.
For `Cc1cc(SC2=C(O)CC(CCc3csc(N)n3)(C(C)C)OC2=O)c(C(C)(C)C)cc1CO` (racemic) [Example 89, 6-[2-(2-Amino-thiazol-4-yl)-ethyl]-3-(2-tert-butyl-4-hydroxymethyl-5-methyl-phenylsulfanyl)-4-hydroxy-6-isopropyl-5,6-dihydro-pyran-2-one], in that order: 0.95 nM, over 57, 3500 nM and over 200000 nM.
Turning to `Cc1cc(SC2=C(O)CC(CCc3ccncc3)(C(C)C)OC2=O)c(C(C)(C)C)cc1CO` (stereo not drawn) [Example 1, 3-(2-tert-Butyl-4-hydroxymethyl-5-methyl-phenylsulfanyl)-4-hydroxy-6-isopropyl-6-(2-pyridin-4-yl-ethyl)-5,6-dihydro-pyran-2-one], the Ki in data set [1] (setting [4]) is 1.5 nM. Further, in data set [2], the “TI (therapeutic index, TC50/EC50)” value is reported as 197 and the EC50 amounted to 1500 nM. Besides, in data set [3], the CC50 was found to be 296000 nM.
As for `Cc1cc(SC2=C(O)CC(CCc3ccco3)(C(C)C)OC2=O)c(C(C)(C)C)cc1CO` (stereo not drawn) [Example 5, 3-(2-tert-Butyl-4-hydroxymethyl-5-methyl-phenylsulfanyl)-6-(2-furan-2-yl-ethyl)-4-hydroxy-6-isopropyl-5,6-dihydro-pyran-2-one], in data set [1] (setting [4]), the Ki was 0.78 nM. Further, in data set [2], the “TI (therapeutic index, TC50/EC50)” value came to 253 and the EC50 was 750 nM. Also, it took 190000 nM to reach half-maximal cytotoxicity in data set [3] (CC50).
In the case of `Cc1cc(SC2=C(O)CC(CCc3cccs3)(C(C)C)OC2=O)c(C(C)(C)C)cc1CO` (stereo not drawn) [Example 8, 3-(2-tert-Butyl-4-hydroxymethyl-5-methyl-phenylsulfanyl)-4-hydroxy-6-isopropyl-6-(2-thiophen-2-yl-ethyl)-5,6-dihydro-pyran-2-one], in data set [1] (setting [4]), the Ki was 0.35 nM. Besides, in data set [2], the “TI (therapeutic index, TC50/EC50)” value worked out at 161 and the EC50 was found to be 500 nM. The compound further returned a CC50 in data set [3] of 80500 nM.
Consider `Cc1cc(SC2=C(O)CC(CCc3csc(CO)c3)(C(C)C)OC2=O)c(C(C)(C)C)cc1CO` (stereo not drawn) [Example 9], for which the Ki in data set [1] (setting [4]) was 0.19 nM. For the same compound, in data set [2], the “TI (therapeutic index, TC50/EC50)” value was determined as 117 and the EC50 stood at 1800 nM. Further, in data set [3], the CC50 amounted to 210000 nM.

What is called Ki is the equilibrium dissociation constant of an inhibitor or competing ligand from its target. The term EC50 denotes the concentration at which the effect is half-maximal. As usually defined, the CC50 is the concentration at which the toxic effect on the cells reaches its halfway point. Higher therefore signals lower toxicity to the cells.
